Here are results for one compound from patent US20100021379A1, “Chemical Antibodies for Immunotherapy and Imaging” (The Regents of the University of California, priority 2006, published 2010).

pIC50: −log10 of the molar value.

The subject of the experiment is K562 cells transfected with the alpha4 integrin subunit. The note with it: ligand alone.

Method: K562 cells express the betal integrin subunit, but not the alpha4 integrin subunit. Staining was quantified by FLOW cytometry, which was performed on a Coulter® XL-MCL™ Flow Cytometer (Beckman Coulter, Inc.; Fullerton, Calif.). Cells were harvested and adjusted to a concentration of 1×10^6 cells/ml in TBS plus 1 mM CaCl2 and MnCl2. Fc-ligand antibody conjugates, Fc fragments, or ligands were then incubated at various concentrations with cells for 1 hour at room temperature. Cells were centrifuged at 1000 RPM for 5 minutes, liquid was aspirated, and cells were resuspended and spun down again. Cells were then incubated with a detecting agent, e.g., 1:1000 streptavidin-PE or 1:500 anti-human Fc-FITC (Sigma-Aldrich Co.) for 1 h at room temperature. Cells were washed two times as described above and then resuspended in PBS at a concentration of 1×10^6 cells/ml. Cellular fluorescence was visualized using a fluorescent microscope.

`Cc1ccccc1NC(=O)Nc1ccc(CC(=O)N[C@@H](CCCCNC(=O)/C=C/c2cccnc2)C(=O)N[C@@H](CCCC(=O)O)C(=O)NC2(C(=O)NCCOCCOCCNC(=O)CCC(=O)N[C@@H](Cc3ccc(O)c(O)c3)C(=O)NCCOCCOCCNC(=O)CCC(=O)NCCOCCOCCNC(=O)CCC(=O)N[C@@H](CCCCNC(=O)CCCC[C@@H]3SC[C@@H]4NC(=O)N[C@@H]43)C(N)=O)CCCCC2)cc1` [Ligand 2A-DOPA-Biotin] gave a pIC50 of 11.70.
